This is an account of results in US4535075A, “Dithiolane derivative, process for producing the same and use thereof” (Nihon Nohyaku Co., Ltd., priority 1982, dated 1985).

Experiment [1] has as its system liver damage induced by carbon tetrachloride. The experiment is described as follows: Protective (Controlling) effect on liver damage induced by carbon tetrachloride. The class given is in vivo, mice (dd strain). The note with it: 250 mg/kg p.o., CCl4 0.05 ml/kg after 6 h, 24 h; for p-GPT: CCl4 alone >2,100; for Liver Damage Index: average of 5 mice, 0 Normal, 2 Slightly recognized, 4 Clearly observable damage, 6 Heavy damage, CCl4 alone 5.0. The text has this: Protective (Controlling) Effect on liver damage induced by carbon tetrachloride.
Carbon tetrachloride administration induces centrilobular necrosis of the liver associated with loss of diphosphopyridine nucleotide, hepatic glycogen, coenzyme A and increase in neutral fat. Release of several enzymes from the hepatocytes, and increases of enzyme activities in the plasma are recognized as the result of the damage of the liver.
A suitable means for evaluating the degree induced by carbon tetrachloride or the degree of protection afforded by drugs is to study the plasma glutamic-pyruvic transaminase (p-GPT) activity. […]
After 6 hours, carbon tetrachloride was administered orally 0.05 ml/kg.
Animals were killed 24 hours after carbon tetrachloride administration, and the liver was grossly observed.
The plasma was obtained by centrifugation. Activity of p-GPT were determined by the method of Reitman and Frankel and expressed in Karmen units.
Score for liver damage index was as follows:
1 Each figure indicated average of 5 mice.

Experiment [2] relates to liver damage induced by α-naphthyl isothiocyanate (ANIT). The experiment is described as follows: Protective effect on liver damage induced by ANIT (Method 1). It counts as in vivo, mice. The note with it: 2 x 250 mg/kg p.o., ANIT 35 mg/kg p.o., 24 h. The text has this:
Protective effect on liver damage induced by α-naphthyl isothiocyanate (referred to as "ANIT", hereinafter).
It is well known that experimental cholestasis is accomplished by administration with ANIT in mice and rats, and studied as a cholestasis model in human being.
ANIT and CCl4 induce necrosis in the liver. ANIT causes it as small focci in perilobular parenchyna and CCl4 causes centrilobular parenchymal coagulation necrosis.
From these information, the elevation of plasma GPT activity in these models are thought to have defferent characteristics.
Test compounds, dissolved or suspended in olive oil or diethyleneglycol, were orally administered 2 times at intervals of 3 hrs to mice at the dose of 250 mg/kg. At 3 hrs after the second administration with test compounds, ANIT was administered orally at 35 mg/kg.
Mice were sacrificed at 24 hrs after ANIT administration and blood samples were collected. The blood samples were centrifuged and plasma was obtained.
Plasma GPT activity and alkaline phosphatase activity were determined by Reitman & Frankel's method and Bessey-Lowry's method, respectively. The activity was expressed with Karmen Unit and Bessey-Lowry Unit, respectively.

Where [3] appears, read: Table 3-1, control 3.3, ANIT alone 5.3.
[4] abbreviates: Table 3-1, control 7.4, ANIT alone 324.0.

For the compound `COCC(C)OC(=O)C(C(=O)OC(C)COC)=C1SC(O)C(O)S1` (stereo not drawn) [Compound 15, bis(3-methoxypropan-2-yl)4,5-dihydroxy-1,3-dithiolan-2-ylidenemalonate], in experiment [1], the p-GPT is on record as 39 Karmen units and the “Liver Damage Index” value came to 0.0. The compound further displayed an Alkaline phosphatase activity in experiment [2] (Table 3-2, ANIT alone 5.3) of 3.7 B-L.V. The p-GPT in experiment [2] (Table 3-2, ANIT alone >653.7) is on record as 134.5 K.U.
For `CC(C)COC(=O)C(C(=O)OC(C)C)=C1SC(O)C(O)S1` (stereo not drawn) [Compound 22], in experiment [1], the p-GPT stood at 9 Karmen units and the “Liver Damage Index” value was 0.0. Besides, the Alkaline phosphatase activity in experiment [2] (setting [3]) came to 5.0 B-L.V. Moreover, the p-GPT in experiment [2] (setting [4]) is 221.0 K.U.
The matching figures for `CCCOC(=O)C(C(=O)OC(C)C)=C1SC(O)C(O)S1` (stereo not drawn) [Compound 20]: 30 Karmen units, 0.4, 4.0 B-L.V and 163.4 K.U.
In the case of `CCCCOC(=O)C(C(=O)OCC)=C1SC(O)C(O)S1` (stereo not drawn) [Compound 18], in experiment [1], the p-GPT is given as 28 Karmen units and the “Liver Damage Index” value turned out to be 0.0. In experiment [2] (setting [3]), this compound had an Alkaline phosphatase activity of 4.8 B-L.V. This compound returned a p-GPT in experiment [2] (setting [4]) of 180.8 K.U.
Consider `CC(C)CCOC(=O)C(C(=O)OCCC(C)C)=C1SC(O)C(O)S1` (stereo not drawn) [Compound 9], for which, in experiment [1], the p-GPT is reported as 47 Karmen units and the “Liver Damage Index” value turned out to be 0.0. The same compound registered an Alkaline phosphatase activity in experiment [2] (Table 3-2, ANIT alone 5.3) of 3.4 B-L.V. Also, the p-GPT in experiment [2] (Table 3-2, ANIT alone >653.7) came out at 27.2 K.U.
The matching figures for `O=C(OC1CCCCC1)C(C(=O)OC1CCCCC1)=C1SC(O)C(O)S1` (stereo not drawn) [Compound 10]: 72 Karmen units, 0.0, 4.9 B-L.V and 363.7 K.U.
In the case of `C#CCOC(=O)C(C(=O)OCC#C)=C1SC(O)C(O)S1` (stereo not drawn) [Compound 13], in experiment [1], the p-GPT is 30 Karmen units and the “Liver Damage Index” value is reported as 0.0. Moreover, in experiment [2] (Table 3-2, ANIT alone 5.3), the Alkaline phosphatase activity is 4.5 B-L.V. In experiment [2] (Table 3-2, ANIT alone >653.7), this compound returned a p-GPT of 265.6 K.U.
On to `CCOC(=O)C(C(=O)OCC(C)C)=C1SC(O)C(O)S1` (stereo not drawn) [Compound 19], for which, in experiment [1], the p-GPT came to 9 Karmen units and the “Liver Damage Index” value turned out to be 0.4. The same compound gave an Alkaline phosphatase activity in experiment [2] (setting [3]) of 5.1 B-L.V. This compound also gave a p-GPT in experiment [2] (setting [4]) of 170.5 K.U.
As to `CCOC(=O)C(C(=O)CC(C)C)=C1SC(O)C(O)S1` (stereo not drawn) [Compound 53], in experiment [1], the p-GPT came out at 94 Karmen units and the “Liver Damage Index” value is reported as 0.8.
The matching figures for `CC(=O)C(C(=O)OCCC(C)C)=C1SC2OC(=O)OC2S1` (stereo not drawn) [Compound 96]: 15.4 Karmen units and 0.
Take `C#CCOC(=O)C(C(=O)OCC#C)=C1SC2OC(=O)OC2S1` (stereo not drawn) [Compound 85]: in experiment [1], the p-GPT worked out at 30.3 Karmen units and the “Liver Damage Index” value worked out at 0.
On the same counts, the results for `C#CCOC(=O)C(C(C)=O)=C1SC2OC(=O)OC2S1` (stereo not drawn) [Compound 99] are 18.4 Karmen units and 0.
The matching figures for `CCC(C)OC(=O)C(C(=O)OC(C)CC)=C1SC(OC(C)=O)C(OC(C)=O)S1` (stereo not drawn) [Compound 60]: 203.0 Karmen units and 0.
On the same counts, the results for `COC(=O)C(C(=O)OC)=C1SC2OC(=O)OC2S1` (stereo not drawn) [Compound 72] are 32.3 Karmen units and 0.
Take `C=CCOC(=O)C(C(=O)OCC=C)=C1SC2OC(=S)OC2S1` (stereo not drawn) [Compound 112, 7-bis(allyloxycarbonyl)methylene-3-thioxo-2,4-dioxa-6,8-dithiabicyclo[3,3,0]octane]: in experiment [1], the p-GPT turned out to be 20.2 Karmen units and the “Liver Damage Index” value worked out at 0.6.
The matching figures for `CCCCCCC(=O)C(C(=O)OCC)=C1SC(O)C(O)S1` (stereo not drawn) [Compound 54]: 188 Karmen units and 2.6.
The matching figures for `CC(C)OC(=O)C(C(=O)OC(C)C)=C1SC2OC(=O)OC2S1` (stereo not drawn) [Compound 75]: 19.9 Karmen units and 0.2.
On to `CCCCOC(=O)C(C(=O)OCCCC)=C1SC2OC(=O)OC2S1` (stereo not drawn) [Compound 76], for which, in experiment [1], the p-GPT was determined as 84.8 Karmen units and the “Liver Damage Index” value was found to be 0.6.
On the same counts, the results for `CCOC(=O)C(C(=O)CC(C)C)=C1SC2OC(=O)OC2S1` (stereo not drawn) [Compound 104] are 17.6 Karmen units and 0.
As for `CC(=O)OC1SC(=C(C(=O)OC(C)C)C(=O)OC(C)C)SC1O` (stereo not drawn) [Compound 57, diisopropyl 4-hydroxy-5-methyl carbonyloxy-1,3-dithiolan-2-ylidenemalonate], in experiment [1], the p-GPT is recorded as 262.0 Karmen units and the “Liver Damage Index” value is listed as 1.0.
On the same counts, the results for `CCCCCOC(=O)C(C(=O)OCCCCC)=C1SC2OC(=O)OC2S1` (stereo not drawn) [Compound 80] are 71.1 Karmen units and 0.4.
On the same counts, the results for `CC(C)COC(=O)C(C#N)=C1SC(O)C(O)S1` (stereo not drawn) [Compound 29] are 175 Karmen units and 1.0.
The matching figures for `CCCCOC(=O)C(C#N)=C1SC(O)C(O)S1` (stereo not drawn) [Compound 28]: 80 Karmen units and 0.4.
On to `CC(=O)C(C(=O)OC(C)C)=C1SC2OC(=O)OC2S1` (stereo not drawn) [Compound 89], for which, in experiment [1], the p-GPT was found to be 26.3 Karmen units and the “Liver Damage Index” value is on record as 0.4.
The matching figures for `CCCOC(=O)C(C(=O)OCCC)=C1SC(OC(C)=O)C(OC(C)=O)S1` (stereo not drawn) [Compound 59]: 40.9 Karmen units and 0.4.
Turning to `CCOC(=O)C(C#N)=C1SC(O)C(O)S1` (stereo not drawn) [Compound 25], the “Liver Damage Index” value in experiment [1] is listed as 2.0.
Take `CC(C)(C)OC(=O)C(C(=O)OC(C)(C)C)=C1SC2OC(=O)OC2S1` (stereo not drawn) [Compound 79]: in experiment [1], the p-GPT is 66.0 Karmen units and the “Liver Damage Index” value amounted to 0.8.
On the same counts, the results for `COC(=O)C(C(C)=O)=C1SC2OC(=O)OC2S1` (stereo not drawn) [Compound 87] are 45.7 Karmen units and 0.6.
On the same counts, the results for `COC(=O)C(C(=O)OC)=C1SC(OC(=O)CCC(=O)O)C(OC(=O)CCC(=O)O)S1` (stereo not drawn) [Compound 70] are 121.0 Karmen units and 1.2.
For the compound `CCCOC(=O)C(C#N)=C1SC(O)C(O)S1` (stereo not drawn) [Compound 26], in experiment [1], the p-GPT is reported as 24 Karmen units and the “Liver Damage Index” value is given as 0.0.
The matching figures for `CCCOC(=O)C(C(=O)OCCC)=C1SC2OC(=S)OC2S1` (stereo not drawn) [Compound 108]: 31.0 Karmen units and 0.
The matching figures for `CCCOC(=O)C(C(=O)OCCC)=C1SC2OC(=O)OC2S1` (stereo not drawn) [Compound 74]: 38.8 Karmen units and 0.
On the same counts, the results for `CCCOC(=O)C(C(C)=O)=C1SC(OC(=O)N(C)C)C(OC(=O)N(C)C)S1` (stereo not drawn) [Compound 65] are 498.7 Karmen units and 1.6.
Take `C=CCOC(=O)C(C(C)=O)=C1SC2OC(=O)OC2S1` (stereo not drawn) [Compound 98]: in experiment [1], the p-GPT was determined as 16.9 Karmen units and the “Liver Damage Index” value amounted to 0.
As to `CCC(C)OC(=O)C(C(=O)OC(C)CC)=C1SC(OC(=O)CCC(=O)O)C(OC(=O)CCC(=O)O)S1` (stereo not drawn) [Compound 71, di-sec-butyl 4,5-bis(2'-carboxyethylcarbonyloxy)-1,3-dithiolan-2-ylidenemalonate], the “Liver Damage Index” value in experiment [1] is 2.2.
On to `CC(=O)C(C(=O)OC(C)(C)C)=C1SC2OC(=O)OC2S1` (stereo not drawn) [Compound 94, 7-(methylcarbonyl-tert-butoxycarbonyl)methylene-3-oxo-2,4-dioxa-6,8-dithiabicyclo[3,3,0]octane], for which, in experiment [1], the p-GPT came out at 26.5 Karmen units and the “Liver Damage Index” value was determined as 0.8.
On to `CC(C)OC(=O)C(C(=O)OC(C)C)=C1SCC(O)S1` (stereo not drawn) [Compound A, reference compound], for which the Alkaline phosphatase activity in experiment [2] (Table 3-2, ANIT alone 5.3) came out at 8.5 B-L.V. The compound further had a p-GPT in experiment [2] (Table 3-2, ANIT alone >653.7) above 755.0 K.U.
As for `CCOC(=O)C(C(=O)C(C)C)=C1SC(O)C(O)S1` (stereo not drawn) [Compound 51], in experiment [1], the p-GPT came out at 172 Karmen units and the “Liver Damage Index” value was 1.6.
